According to US6296859A, “Synergistic composition comprising a compound of lipoamino acid structure and a water lily extract” (Societe d'Exploitation de Produits pour les Industries …, priority 1998, dated 2001):

What was measured:
[1] = target: T1, human leukocytic elastase (HLE) (Homo sapiens, UniProt P08246); assay: anti-elastase test: spectrophotometric hydrolysis of N-methoxysuccinyl-alanine-proline-valine-para-nitroanilide at 410 nm; format: biochemical; settings: test concentration 0.001% palmitoylproline alone; 25° C.
T1 sequence (P08246 30-267): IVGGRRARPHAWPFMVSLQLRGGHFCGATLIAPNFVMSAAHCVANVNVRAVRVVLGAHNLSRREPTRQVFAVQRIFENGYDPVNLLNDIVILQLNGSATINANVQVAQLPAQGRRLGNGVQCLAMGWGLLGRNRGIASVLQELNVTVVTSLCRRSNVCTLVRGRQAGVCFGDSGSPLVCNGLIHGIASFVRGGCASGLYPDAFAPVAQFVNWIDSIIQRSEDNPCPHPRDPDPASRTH
Method: The reaction is carried out in a spectrophotometer, thermostatically maintained at 25° C., fitted with a sample changer. All the kinetics are carried out at least three times, the average and the standard deviation then being calculated for the three values obtained. […] A correlation thus exists between the percentage of inhibition of the formation of the coloured product by the test compound and the percentage of inhibition of human leukocytic elastase. The percentage of inhibition thus calculated is also representative of the calmant activity of the test compound.

[2] = anti-free-radical test: xanthine oxidase/xanthine, rate of reduction of cytochrome C at 550 nm; format: biochemical; settings: test concentration 0.0062% palmitoylproline alone; 25° C.
From the text: The determination of the anti-free-radical effect is based on the inhibition or the decrease in the rate of reduction of cytochrome C, by adding a test molecule to the reaction medium. The superoxide anion is generated by the action of xanthine oxidase on xanthine. In the absence of a molecule capable of capturing it, it results in the reduction of cytochrome C. The formation of reduced cytochrome C is monitored by a spectrophotometer, at 550 nm in the presence (Test) and in the absence (Control) of anti-free-radical molecules.
The reaction takes place in a spectrophotometer thermostatically adjusted to 25° C. and fitted with a sample changer. All of the kinetics are carried out at least three times; the average and the standard deviation are calculated for the three values obtained. A percentage of inhibition of the rate of formation of the coloured product (corresponding to the amount of free superoxide anion) will thus be calculated for each active agent tested. […] The percentage of inhibition of the formation of the coloured product by the active agent will thus correspond to its percentage of inhibition of the superoxide anion.

CCCCCCCCCCCCCCCC(=O)N1CCC[C@H]1C(=O)O [Palmitoylproline, N-palmitoylproline]
% of anti-elastase inhibition [1]: 22% | % of anti-free-radical inhibition [2]: 38%
